From patent US20240051952A1, “HMOX1 INDUCERS” (Mitobridge Inc., priority 2019, published 2024)
“Also recorded” adds a separate entry of the source.

Columns and labels:
[1] = test system: HbSS Townes sickle mice; assay: F-cells in HbSS Townes sickle mice; format: in vivo, mouse
Description: Blood smears were made using heparinized whole blood for F-cells staining. Stained F-cells and total red blood cells were counted on the blood smears in four fields; mean=77 red blood cells/field. F-cells are expressed as a percentage of total red blood cells. Values are means+SD. One-Way ANOVA with Dunnett's Multiple comparison to Vehicle **p≤0.01, ***p≤0.001, ****p≤0.0001
(§1) Dosing Scheme of HMOX Inducers to HbSS Townes Sickle Mice
HbSS Townes sickle mice were oral gavaged once daily with Vehicle or the compound of Example 17 listed below for 8 days. To minimize experimental inconsistency, fresh formulation was prepared every day and vortexed prior to drawing test article into syringe for each dosing, and dosing was performed by the same individual throughout the day. The last-day dose was administered by oral gavage 4 hours prior to hemin infusion described below. • 1. […]
F-cells were stained on whole blood smears by the Kleihauer-Betke method using a fetal cell stain kit (Simmler) according to the manufacturer's instructions. F-cells and total erythrocytes were counted in 4 separate microscopic fields at 100× magnification for each mouse. The F-cells were expressed as a percentage of total erythrocytes (i.e., red blood cells). […]

[2] = test system: HbSS Townes sickle mice; assay: Heme-induced vaso-occlusion (stasis) in HbSS Townes sickle mice; format: in vivo, mouse; settings: 1 h after heme infusion
Description: Townes-SS mice were gavaged once daily with Vehicle or the compound of Example 17 for 8 days. After the last gavage dorsal skin-fold chambers were implanted on the mice and 20-22 flowing venules were selected and mapped in the subcutaneous skin using intravital microscopy. Mice were then infused via the tail vein with Panhematin (3.2 μmols heme/kg body weight). One hour after infusion each venule was re-examined for microvascular stasis (no flow) and data are expressed as % stasis. Stasis values are means+SD. One-Way ANOVA with Dunnett's Multiple comparison to Vehicle ****P<0.0001
as §1
HbSS Townes sickle mice were oral gavaged once daily with Vehicle or the compound of Example 17 listed below for 8 days. To minimize experimental inconsistency, fresh formulation was prepared every day and vortexed prior to drawing test article into syringe for each dosing, and dosing was performed by the same individual throughout the day. The last-day dose was administered by oral gavage 4 hours prior to hemin infusion described below. • 1. Vehicle (0.5% w/v Tween 80 in 0.45% w/v methyl cellulose) • 2. the compound of Example 17 (10 mg/kg PO dosing) • 3. the compound of Example 17 (25 mg/kg PO dosing) • 4. the compound of Example 17 (50 mg/kg PO dosing)
Measurement of Vaso-Occlusion (Stasis)
Male and female sickle mice, approximately 12 weeks of age, were weighed before surgery. Animals were anesthetized with a mixture of ketamine (106 mg/kg) and xylazine (7.2 mg/kg) and dorsal skin-fold chambers (DSFCs) were surgically implanted. On the same day anesthetized mice were placed on a special intravital microscopy stage, and 20-22 flowing subcutaneous venules in the DSFC window were selected and mapped. After venule selection and mapping, hemin chloride (2.677 mM; Frontier Scientific), dissolved in sterile saline containing sodium carbonate (11.36 mM; Sigma-Aldrich) and D-sorbitol (9.59 mM; Sigma-Aldrich), was filtered (0.22 μm), diluted 1:10 in sterile saline (267.7 μM hemin, final) and infused into the tail veins of mice (0.012 ml/g, 3.2 μmols heme/kg body weight). All of the selected venules were re-examined at 1 h after hemin infusion, and the number of static (no flow) venules was counted and expressed as percent stasis. Four hours after hemin infusion, mice were euthanized in a CO2 atmosphere and the liver, spleen and kidneys were removed, flash frozen, and stored at −85° C.

[3] = 10, 25, 50 mg/kg PO once daily 8 days

## Cn1c(Nc2nc3ccccc3o2)nc2cc(C(=O)NCCOCCO)ccc21 [Example 17, 2-(benzo[d]oxazol-2-ylamino)-N-(2-(2-hydroxyethoxy)ethyl)-1-methyl-1H-benzo[d]imidazole-5-carboxamide]
[1]; [3]
  percent F-cells vs vehicle: significantly increased; also recorded: percentage of F-cells increase
[1]; all doses tested (10, 25, 50 mg/kg PO, 8 days), % of total red blood cells
  percent F-cells: 55-70%
[2]; 10 mg/kg PO once daily 8 days
  stasis: ~17%
[2]; 25 mg/kg PO once daily 8 days
  stasis: ~12%
[2]; 50 mg/kg PO once daily 8 days
  stasis: ~5%
[2]; [3]
  microvascular stasis vs Vehicle: significantly reduced; also recorded: dose responsively inhibit microvascular stasis
